Assay results taken from the supplement of paper PMC11451515.

Tested on: SEM cells
Test: cell viability relative to DMSO control; higher = less cytotoxic
Details: 48 h
In short: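 Viability is a per-plate percentage relative to DMSO wells, with cell-free wells as background. CellTiter-Glo One luminescence was read after 48 h at 37°C on 1536-well plates (5 μl) of NOMO1 or SEM (500 cells/well) or P12-Ichikawa (1000 cells/well) leukemia cells. The cells had been adapted for at least four passages in each medium and pin-dosed with library compounds in DMSO from 47 μM to 0.79 nM in 11 threefold steps.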

[1] = HPLM + 10% dialyzed FBS, 0.000781 µM
[2] = HPLM + 10% dialyzed FBS, 0.00234 µM
[3] = HPLM + 10% dialyzed FBS, 0.00702 µM
[4] = HPLM + 10% dialyzed FBS, 0.0211 µM
[5] = HPLM + 10% dialyzed FBS, 0.0632 µM
[6] = HPLM + 10% dialyzed FBS, 0.19 µM
[7] = HPLM + 10% dialyzed FBS, 0.569 µM
[8] = HPLM + 10% dialyzed FBS, 1.71 µM
[9] = HPLM + 10% dialyzed FBS, 5.12 µM
[10] = HPLM + 10% dialyzed FBS, 15.4 µM
[11] = HPLM + 10% dialyzed FBS, 46.1 µM
[12] = RPMI 5 mM glucose + 10% FBS, 0.000781 µM
[13] = RPMI 5 mM glucose + 10% FBS, 0.00234 µM
[14] = RPMI 5 mM glucose + 10% FBS, 0.00702 µM
[15] = RPMI 5 mM glucose + 10% FBS, 0.0211 µM
[16] = RPMI 5 mM glucose + 10% FBS, 0.0632 µM
[17] = RPMI 5 mM glucose + 10% FBS, 0.19 µM
[18] = RPMI 5 mM glucose + 10% FBS, 0.569 µM
[19] = RPMI 5 mM glucose + 10% FBS, 1.71 µM
[20] = RPMI 5 mM glucose + 10% FBS, 5.12 µM
[21] = RPMI 5 mM glucose + 10% FBS, 15.4 µM
[22] = RPMI 5 mM glucose + 10% FBS, 46.1 µM
[23] = RPMI 5 mM glucose + 10% dialyzed FBS, 0.000781 µM
[24] = RPMI 5 mM glucose + 10% dialyzed FBS, 0.00234 µM
[25] = RPMI 5 mM glucose + 10% dialyzed FBS, 0.00702 µM
[26] = RPMI 5 mM glucose + 10% dialyzed FBS, 0.0211 µM
[27] = RPMI 5 mM glucose + 10% dialyzed FBS, 0.0632 µM
[28] = RPMI 5 mM glucose + 10% dialyzed FBS, 0.19 µM
[29] = RPMI 5 mM glucose + 10% dialyzed FBS, 0.569 µM
[30] = RPMI 5 mM glucose + 10% dialyzed FBS, 1.71 µM
[31] = RPMI 5 mM glucose + 10% dialyzed FBS, 5.12 µM
[32] = RPMI 5 mM glucose + 10% dialyzed FBS, 15.4 µM
[33] = RPMI 5 mM glucose + 10% dialyzed FBS, 46.1 µM

SMILES | cell viability [1] [%] | cell viability [2] [%] | cell viability [3] [%] | cell viability [4] [%] | cell viability [5] [%] | cell viability [6] [%] | cell viability [7] [%] | cell viability [8] [%] | cell viability [9] [%] | cell viability [10] [%] | cell viability [11] [%] | cell viability [12] [%] | cell viability [13] [%] | cell viability [14] [%] | cell viability [15] [%] | cell viability [16] [%] | cell viability [17] [%] | cell viability [18] [%] | cell viability [19] [%] | cell viability [20] [%] | cell viability [21] [%] | cell viability [22] [%] | cell viability [23] [%] | cell viability [24] [%] | cell viability [25] [%] | cell viability [26] [%] | cell viability [27] [%] | cell viability [28] [%] | cell viability [29] [%] | cell viability [30] [%] | cell viability [31] [%] | cell viability [32] [%] | cell viability [33] [%]
C[C@H]1[C@@H](C(=O)C[C@H]2O[C@@H]3O[C@]4(C)CC[C@H]5[C@H](C)CC[C@@H]([C@H]2C)[C@@]35OO4)O[C@@H]2O[C@]3(C)CC[C@H]4[C@H](C)CC[C@@H]1[C@@]24OO3 | 92.6 | 106 | 95.1 | 83.9 | 102 | 84.1 | 84.6 | 91.5 | 89 | 75.4 | 6.82 | 87.2 | 112 | 116 | 109 | 113 | 107 | 105 | 96.8 | 72.1 | 53.1 | 5.74 | 96.3 | 114 | 115 | 99.7 | 113 | 109 | 116 | 96.9 | 92.9 | 75 | 7.69
CN1c2ccccc2C(=O)N2CCc3c([nH]c4ccccc34)C21 (configuration not stated) | 136 | 120 | 114 | 127 | 125 | 120 | 122 | 131 | 125 | 117 | 101 |  |  |  |  |  |  |  |  |  |  |  | 111 | 105 | 120 | 114 | 104 | 112 | 125 | 109 | 102 | 89.1 | 94.7
COC[C@H](c1ccc(C(F)(F)F)cc1)N1CCN(C2(C)CCN(C(=O)c3c(C)ncnc3C)CC2)C[C@H]1C.O=C(O)/C=C\C(=O)O | 80.5 | 98.2 | 105 | 93.5 | 90 | 104 | 90.2 | 92 | 99.8 | 95.4 | 61.8 | 66 | 94.5 | 82.9 | 97.5 | 85.6 | 87.6 | 84.5 | 99.6 | 92.4 | 83.8 | 59.6 | 85.2 | 93.2 | 97.1 | 108 | 88.6 | 97.3 | 103 | 104 | 84 | 98 | 65.8
Nc1nc(N)c2nc(-c3cccc(O)c3)c(-c3cccc(O)c3)nc2n1 | 110 | 120 | 120 | 135 | 111 | 125 | 104 | 106 | 94.5 | 35 | 8.06 | 124 | 125 | 125 | 129 | 103 | 118 | 120 | 110 | 108 | 73.8 | 13.8 | 119 | 99.4 | 129 | 106 | 105 | 114 | 98.8 | 96.5 | 97.2 | 61 | 18.2
N[S+](=O)([O-])c1cccc2c1C(=O)c1cccc(O)c1C2=O | 84.4 | 95.8 | 98.9 | 84.2 | 91.8 | 91.5 | 61.6 | 59.9 | 53.7 | 44.1 | 3.56 | 95.8 | 96.3 | 102 | 68.9 | 94.7 | 83.2 | 51.1 | 44.2 | 21.9 | 4.54 | 3.13 | 89.4 | 102 | 96.1 | 62.1 | 95.1 | 70 | 40.8 | 33.3 | 18.3 | 24.5 | 3.78
ClC1=CC\2=C(NC(=O)\C(=C2N[C@@H]3CN4CCC3CC4)C5=NC6=C([NH]5)C=CC=C6)C=C1 | 116 | 98.7 | 102 | 89.2 | 53.3 | 27.7 | 24.2 | 21 | 8.58 | 3.33 | 5.63 | 95.8 | 87.5 | 83.9 | 71 | 67.4 | 22.8 | 16.2 | 11.2 | 6.87 | 2.16 | 2.19 | 99.5 | 108 | 98 | 86.8 | 63.2 | 25.4 | 19.1 | 15 | 8.88 | 2.81 | 3.39
C[C@]12CC[C@H]3[C@@H](C\C=C/4C[C@@H](O)CC[C@]34C)[C@@H]1CCC2=O | 103 | 98.2 | 91.1 | 102 | 98.4 | 94.6 | 99.8 | 98.2 | 83.4 | 107 | 103 | 108 | 114 | 121 | 135 | 136 | 111 | 135 | 115 | 93.1 | 116 | 97.5 | 112 | 97.1 | 118 | 128 | 127 | 136 | 130 | 121 | 94.3 | 115 | 112
C[C@@H](NC(=O)c1ncnc(N)c1Cl)c1ncc(C(=O)Nc2cc(C(F)(F)F)c(Cl)cn2)s1 |  |  |  |  |  |  |  |  |  |  |  | 113 | 119 | 105 | 127 | 125 | 126 | 127 | 121 | 121 | 112 | 106 | 123 | 128 | 112 | 126 | 139 | 134 | 135 | 137 | 131 | 119 | 96.2
